Laboratory results taken from article PMC11791359, “A select inhibitor of MORC2 encapsulated by chimeric membranecoated DNA nanocage target alleviation TNBC progression” (Materials Today Bio, 2025).
“Also recorded” adds a separate entry of the source.

What was measured:
MDA-MB-468 cells = assay: CCK8 assay, MDA-MB-468; type: cell-based, human; conditions: CCK8, MDA-MB-468, 24 h
Procedure: MDA-MB-231 and MDA-MB-468 cells were inoculated on 96-well plates with 5×10^3 cells per well, and then different small molecule drugs were added according to study requirements after the cell culture reached the appropriate density. Twenty-four hours after treatment, CCK-8 reagent was added to each well and incubated for 2 hours. Then, the absorbance of each well was measured at 450 nm using an enzyme-labeler to calculate the relative survival rate of cells.

TNBC cells [1] = assay: Cell cycle by flow cytometry; type: cell-based, human; conditions: TNBC cells after Angoline treatment
Procedure: (§1) The treated cells were digested with pancreatic enzymes and then were collected and washed with PBS. The cells were immobilized with pre-cooled 70% ethanol at 4 ℃ for 12-24 hours, and then centrifuged, washed, and suspended to ensure uniform cell dispersion. Propyridine iodide staining solution was added to each cell sample and incubated without light at 37 ℃ for 30 minutes. Subsequently, the labeled cells were subjected to cell cycle analysis using flow cytometer (Beckman Coulter, USA), and the results were processed by FlowJo software. For the apoptosis assay, 1 × 10^5 cells per sample were collected into 1.5 mL centrifuge tubes and were re-suspended with 195 μL Annexin V-FITC binding solution. Then, 5 μL Annexin V-FITC and 10 μL PI dyeing solution were added into every sample to re-suspend the cells and incubated at 20-25 °C for 20 minutes. Flow cytometry was used to detect red fluorescence at 638 nm and green fluorescence at 488 nm, and the apoptosis results were analysed by FlowJo software.

[2] = tested on: primary TNBC cell xenograft tumors; assay: In vivo antitumor efficacy, primary TNBC xenograft; parameters: species or system BALB/c nude mice
Procedure: Xenograft tumor models were established by injecting primary TNBC cells under the skin of BALB/c nude mice. Then, one week after implantation, the mice were administered with normal saline, Angoline, PMD and PMD (Angoline) respectively via tail vein injection every 3 days. Also, the tumor volume in mice was measured every three days. […] Finally, all mice were sacrificed three weeks later and xenografts were removed. […] Additionally, significant differences in tumor weight were observed among the four groups (Fig. […]). […] Thus, we performed immunofluorescence staining to analyze the expression of Ki-67 in different groups. […] Furthermore, TUNLE staining was performed to evaluate the apoptosis of tumors treated with different drugs (Fig. 5E). […] PMD(Angoline) was prepared by encapsulating Angoline into tDNAn following the assembly steps mentioned above. Tumor-bearing mice were established using primary TNBC cells obtained from patients, following the methods described in the animal assessment section. Then, those mice were intravenously administrated with saline, Angoline, PMD and PMD(Angoline) every 3 days, respectively. Meanwhile, the tumor volume and mice weight were continuously monitored every 3 days. Ultimately, the mice were sacrificed after three weeks to obtain the tumors and vital organs (heart, liver, spleen, lung and kidney). Ki-67 expression was detected by immunofluorescence to determine the tumor growth in different groups. Also, HE staining was used to determine the damage of different drugs to important organs.

TNBC cells [3] = assay: Apoptosis by flow cytometry (Annexin V-FITC/PI); type: cell-based, human; conditions: TNBC cells treated with Angoline
Procedure: as §1

## COc1ccc2c(c1OC)C(OC)N(C)c1c-2ccc2cc3c(cc12)OCO3 (stereo not shown) [Angoline]
MDA-MB-468 cells
  killing effect / inhibitory effect on cell viability: strongest killing effect; also recorded: progressively increased with higher concentrations
TNBC cells [1]
  cell cycle distribution: higher proportion of TNBC cells remained in S and G2 phases
[2]; tail vein injection every 3 days, three weeks
  primary tumor growth (tumor volume): significant suppression of the primary tumor growth
[2]; tumor tissue
  apoptosis of tumors (TUNEL staining): significantly higher apoptosis rate compared to the groups treated with saline or PMD
  proliferation capacity of tumor cell (Ki-67 immunofluorescence): significantly lower in the Angoline group than that in saline or PMD groups, but higher than PMD(Angoline) group
[2]; tumor-bearing mice, every 3 days
  body weight: significantly increased
TNBC cells [3]
  apoptosis rate: significantly increased; also recorded: dramatically increased
